Earlier results as cited in patent EP1136069A1, “Pharmaceutical compositions containing clodronates for high local tolerance intramuscular administration” (SPA SOCIETA' PRODOTTI ANTIBIOTICI S.p.A., priority 2000, dated 2001).

Details: oral route

O=P(O)(O)C(Cl)(Cl)P(=O)(O)O [clodronate]
bioavailability: 1-4%
